# According to the NIST ThermoML archive (doi:10.1016/j.fluid.2014.03.019):
# ± gives the expanded uncertainty stated by the source.
# Tests used:
# [1] = wn = mass fraction of the nth substance listed; details: Liquid, Vibrating tube method
# [2] = refractive index (Na D-line) (dimensionless); wn = mass fraction of the nth substance listed; details: Liquid, Standard Abbe refractometry
structure (smiles),measurement,setting,value
O=B[O-].[Li+] [lithium metaborate] + O,mass density,"[1]; 288.15 K, w1 = 0.0187",1023.17 ± 0.34 kg/m3
same,mass density,"[1]; 298.15 K, w1 = 0.0336",1035.63 ± 0.26 kg/m3
same,refractive index,"[2]; 288.15 K, w1 = 0.0187",1.341 ± 0.0005
same,refractive index,"[2]; 298.15 K, w1 = 0.0336",1.3452 ± 0.0004
O=S(=O)([O-])[O-].[Li+].[Li+] [lithium sulfate] + O,mass density,"[1]; 288.15 K, w1 = 0.2596",1246.65 ± 1.8 kg/m3
same,mass density,"[1]; 298.15 K, w1 = 0.2561",1245.02 ± 2.7 kg/m3
same,refractive index,"[2]; 288.15 K, w1 = 0.2596",1.3788 ± 0.0005
same,refractive index,"[2]; 298.15 K, w1 = 0.2561",1.3771 ± 0.0006
